Measurements taken from patent US6277859A, “Morphinan derivative and its pharmaceutical applications” (priority 1992, dated 2001).
pIC50: −log10 of the molar value. Where a name gives a salt, the structure may show the parent alone.

Experiments:
[1] = tested on: isolated mouse vas deference; experiment: Opioid activity test using the isolated mouse vas deference preparation (electrically stimulated contractions); assay type: cell-based, mouse (male ddy); settings: suppression of electrically stimulated contractions
Method: Opioid Activity Test Using the Isolated Mouse Vas Deference Preparation
(§1) A male ddy mouse was used in this test. The isolated vas deference was filled with Krebes-Henseleit solution (NaCl 118 mM; KCl 4.7 mM; CaCl2 2.5 mM; KH2 PO4 1.1 mM; NaHCO3 25 mM; and glucose 10 mM) warmed to 37° C. and suspended in a Magnus tube ventilated with 5% carbon dioxide and 95% oxygen. Electrical stimulus was performed at 0.1 Hz for 5.0 ms by means of ring-shaped platinum electrodes located above and below. Tissue contractions were recorded on a polygraph using an isometric transducer.
(§2) Then after adequately washing with nutrient solution and the contraction reaction stabilized, naloxone, a μ […], NTI, a δ […], or norBNI, a κ […], were added and the test compound was again cumulatively added after roughly 20 minutes. The Ke value was calculated using the following calculation formula from the difference in the efficacies of both agonists.

[2] = target: T1, κ receptor (Mus musculus, UniProt P33534); experiment: Ke with norBNI in isolated mouse vas deference preparation; assay type: cell-based, mouse (male ddy); settings: for Ke norBNI: norBNI (κ)
T1 construct: The isolated vas deference was filled with Krebes-Henseleit solution; from tissue; host or cells: isolated vas deferens of male ddy mouse
T1 sequence (P33534 whole entry): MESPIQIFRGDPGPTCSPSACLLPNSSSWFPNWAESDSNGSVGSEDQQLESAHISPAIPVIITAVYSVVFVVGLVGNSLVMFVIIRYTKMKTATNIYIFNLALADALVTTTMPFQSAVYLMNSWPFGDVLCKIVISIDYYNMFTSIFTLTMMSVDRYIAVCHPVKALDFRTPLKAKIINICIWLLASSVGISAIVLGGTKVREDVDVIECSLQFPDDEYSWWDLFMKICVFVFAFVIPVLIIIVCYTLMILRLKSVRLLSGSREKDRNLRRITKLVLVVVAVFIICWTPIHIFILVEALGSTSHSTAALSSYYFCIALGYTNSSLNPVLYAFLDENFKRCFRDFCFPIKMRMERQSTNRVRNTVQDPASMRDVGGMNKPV
Method: as §1, §2
(§3) Ke=[Conc. of added agonist]/(IC50 ratio-1)
(§4) IC50 ratio IC50 in the presence of agonist/IC50 in the absence of agonist

[3] = target: T2, μ receptor (Mus musculus, UniProt P42866); experiment: Ke with naloxone in isolated mouse vas deference preparation; assay type: cell-based, mouse (male ddy)
T2 construct: The isolated vas deference was filled with Krebes-Henseleit solution; from tissue; host or cells: isolated vas deferens of male ddy mouse
T2 sequence (P42866 whole entry): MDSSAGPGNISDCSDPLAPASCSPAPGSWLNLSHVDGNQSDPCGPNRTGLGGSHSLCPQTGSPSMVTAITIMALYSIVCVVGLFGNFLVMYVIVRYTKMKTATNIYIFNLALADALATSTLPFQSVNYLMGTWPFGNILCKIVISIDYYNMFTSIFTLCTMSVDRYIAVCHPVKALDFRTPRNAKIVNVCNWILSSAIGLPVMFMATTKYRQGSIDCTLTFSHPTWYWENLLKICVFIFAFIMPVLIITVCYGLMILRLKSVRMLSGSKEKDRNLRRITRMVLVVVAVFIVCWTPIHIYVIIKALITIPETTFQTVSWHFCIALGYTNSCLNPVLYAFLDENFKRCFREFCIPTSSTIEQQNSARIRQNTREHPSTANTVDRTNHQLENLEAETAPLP
Method: as §1, §2, §3, §4

[4] = target: T3, δ receptor (Mus musculus, UniProt P32300); experiment: Ke with NTI in isolated mouse vas deference preparation; assay type: cell-based, mouse (male ddy); settings: for Ke NTI: NTI (δ)
T3 construct: The isolated vas deference was filled with Krebes-Henseleit solution; from tissue; host or cells: isolated vas deferens of male ddy mouse
T3 sequence (P32300 whole entry): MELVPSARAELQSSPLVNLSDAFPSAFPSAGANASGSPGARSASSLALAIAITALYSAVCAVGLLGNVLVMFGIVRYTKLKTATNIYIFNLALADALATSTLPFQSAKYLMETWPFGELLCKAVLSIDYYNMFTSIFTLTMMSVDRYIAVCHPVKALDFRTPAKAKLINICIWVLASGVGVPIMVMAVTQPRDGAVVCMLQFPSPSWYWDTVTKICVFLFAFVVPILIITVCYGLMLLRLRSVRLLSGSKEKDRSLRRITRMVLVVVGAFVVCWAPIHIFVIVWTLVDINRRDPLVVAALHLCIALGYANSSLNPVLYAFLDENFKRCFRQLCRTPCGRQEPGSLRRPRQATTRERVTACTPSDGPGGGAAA
Method: as §1, §2, §3, §4

[5] = tested on: Wistar rats; experiment: Evaluation of diuretic action; assay type: in vivo, rat (male Wistar); settings: sc, rat, s.c., urine output for 5 h after 20 ml/kg saline oral; for ED200: read-out: ED200, diuretic action (dose giving urine output of 200, non-dosed group = 100); for ED500: read-out: ED500, diuretic action (dose giving urine output of 500, non-dosed group = 100)
Method: Evaluation of Diuretic Action
7-8 week old male Wistar rats were used in this test after prohibiting from drinking water for 1 hour before testing. After discharging any urine accumulated in the bladder by gently stimulating the lower abdomens of the animals, the drug was administered subcutaneously. After 30 minutes, the animals were then forcibly given 20 ml/kg of physiological saline orally. The animals were then placed in metabolic cages immediately after administration of the drug (2 animals/cage) and urine output for 5 hours after loading with physiological saline was measured. Drug efficacy was expressed in the form of those doses resulting in urine outputs of 200 and 500, respectively, when the urine output of a non-dosed group was taken to be 100. Those doses were expressed as the ED200 and ED500 values, respectively.

| SMILES | pIC50 [1] | selective agonist for κ receptors (in words) [2] | Ke norBNI [2] [nM] | Ke Naloxone [3] [nM] | Ke NTI [4] [nM] | ED200 [5] [µg/kg] | ED500 [5] [µg/kg] | selective agonist for δ receptors (in words) [4] |
| --- | --- | --- | --- | --- | --- | --- | --- | --- |
| CN(C(=O)/C=C/c1ccco1)[C@@H]1CC[C@@]2(O)[C@H]3Cc4ccc(O)c5c4[C@@]2(CCN3CC2CC2)[C@H]1O5 [Compound 70, 17-cyclopropylmethyl-3,14β-dihydroxy-4,5α-epoxy-62. [N-methyl-trans-3-(2-furyl)acrylamido] morphinan.hydrochloride] | 9.26 | selective agonists for κ receptors | 0.198 |  |  |  |  |  |
| CCCCCC(=O)N(C)[C@H]1CC[C@@]2(O)[C@H]3Cc4ccc(O)c5c4[C@@]2(CCN3CC2CC2)[C@H]1O5 [Compound 39, 17-cyclopropylmethyl-3,14β-dihydroxy-4,5α-epoxy-6α-(N-methylhexanamido)morphinan.tartrate] |  | selective agonists for κ receptors | 1.01 | 89.9 | 99.3 | 4.1 |  |  |
| CN(C(=O)C#Cc1ccccc1)[C@@H]1CC[C@@]2(O)[C@H]3Cc4ccc(O)c5c4[C@@]2(CCN3CC2CC2)[C@H]1O5 [Compound 101, 17-cyclopropylmethyl-3,14β-dihydroxy-4,5α-epoxy-6β-(N-methyl-3-phenylpropiolamido)morphinan.hydrochloride] |  | selective agonists for κ receptors | 0.0425 | 25.4 | 31.6 | 8.9 |  |  |
| CN(C(=O)CCc1ccccc1)[C@H]1CC[C@@]2(O)[C@H]3Cc4ccc(O)c5c4[C@@]2(CCN3CC2CC2)[C@H]1O5 [Compound 22, 17-Cyclopropylmethyl-4,5α-epoxy-3,14β-dihydroxy-6α-(N-methyl-3-phenylpropionamido)morphinan.tartrate] |  | selective agonists for κ receptors | 5.53 | 800 | 545 | 0.95 | 17 |  |
| CN(C(=O)/C=C/c1cccc(F)c1)[C@@H]1CC[C@@]2(O)[C@H]3Cc4ccc(O)c5c4[C@@]2(CCN3CC2CC2)[C@H]1O5 [Compound 102, 17-cyclopropylmethyl-3,14β-dihydroxy-4,5α-epoxy-6β-(N-methyl-3-fluorocinnamamido)morphinan.tartrate] | 8.80 | selective agonists for κ receptors | 2.37 |  | 276 | 1.4 |  |  |
| CN(C(=O)C#Cc1ccccc1)[C@H]1CC[C@@]2(O)[C@H]3Cc4ccc(O)c5c4[C@@]2(CCN3CC2CC2)[C@H]1O5 [Compound 84, 17-cyclopropylmethyl-3,14β-dihydroxy-4,5α-epoxy-6α-(N-methyl-3-phenylpropiolamido)morphinan.hydrochloride] |  |  | 5.69 | 35.4 | 0.309 | 2.8 |  | selective agonists for δ receptors |
| CCC/C=C/C(=O)N(C)[C@@H]1CC[C@@]2(O)[C@H]3Cc4ccc(O)c5c4[C@@]2(CCN3CC2CC2)[C@H]1O5 [Compound 100, 17-cyclopropylmethyl-3,14β-dihydroxy-4,5α-epoxy-6β-(N-methyl-trans-2-hexenamido)morphinan.tartrate] | 9.19 | selective agonists for κ receptors | 0.0717 | 1797 |  |  |  |  |
| CN(C(=O)/C=C/c1ccc(C(F)(F)F)cc1)[C@@H]1CC[C@@]2(O)[C@H]3Cc4ccc(O)c5c4[C@@]2(CCN3CC2CC2)[C@H]1O5 [Compound 73, 17-cyclopropylmethyl-3,14,β-dihydroxy-4,5α-epoxy-6β-(N-methyl-4-trifluoromethylcinnamamido) morphinan.tartrate] |  | selective agonists for κ receptors | 0.272 | 524 | 78 |  |  |  |
| CN(C(=O)COc1ccccc1)[C@H]1CC[C@@]2(O)[C@H]3Cc4ccc(O)c5c4[C@@]2(CCN3CC2CC2)[C@H]1O5 [Compound 38, 17-cyclopropylmethyl-3,14β-dihydroxy-4,5α-epoxy-6α-(N-methylphenoxyacetamido) morphinan.hydrochloride] |  | selective agonists for κ receptors | 4.65 | 411 | 16.6 | 3.8 |  |  |
| CN(C(=O)/C=C/c1cccc(C(F)(F)F)c1)[C@@H]1CC[C@@]2(O)[C@H]3Cc4ccc(O)c5c4[C@@]2(CCN3CC2CC2)[C@H]1O5 [Compound 60, 17-cyclopropylmethyl-3,14β-dihydroxy-4,5α-epoxy-60-(N-methyl-3-trifluoromethylcinnaiamido)morphinan.tartrate] | 9.33 | selective agonists for κ receptors | 3.20 |  | 291 |  |  |  |
| CN(C(=O)/C=C/c1cccc([N+](=O)[O-])c1)[C@H]1CC[C@@]2(O)[C@H]3Cc4ccc(O)c5c4[C@@]2(CCN3CC2CC2)[C@H]1O5 [Compound 97, 17-cyclopropylmethyl-3,14β-dihydroxy-4,5α-epoxy-6α-(N-methyl-3-nitrocinnamamido)morphinanphosphate] |  |  | 13.9 | 163 | 2.92 | 4.5 |  | selective agonists for δ receptors |
| C=CCN1CC[C@]23c4c5ccc(O)c4O[C@H]2[C@@H](N(C)C(=O)Cc2ccc(Cl)c(Cl)c2)CC[C@@]3(O)[C@H]1C5 [Compound 122, 17-allyl-3,14β-dihydroxy-4,5α-epoxy-6α-(N-methyl-3,4-dichlorophenylacetamido)morphinan.hydrochloride] |  | selective agonists for κ receptors | 0.358 | 59.5 | 42.7 |  |  |  |
| CN(C(=O)/C=C/c1ccoc1)[C@H]1CC[C@@]2(O)[C@H]3Cc4ccc(O)c5c4[C@@]2(CCN3CC2CC2)[C@H]1O5 [Compound 89, 17-cyclopropylmethyl-3,14β-dihydroxy-4,5α-epoxy-6α-[N-methyl-trans-3-(3-furyl)acrylamido]morphinane.tartrate] |  | selective agonists for κ receptors | 0.85 | 18.3 | 15.6 | 1.2 |  |  |
| CN(C(=O)/C=C/c1ccoc1)[C@@H]1CC[C@@]2(O)[C@H]3Cc4ccc(O)c5c4[C@@]2(CCN3CC2CC2)[C@H]1O5 [Compound 61, 17-cyclopropylmethyl-3,14β-dihydroxy-4,5α-epoxy-6β-[N-methyl-trans-3-(3-furyl)acrylamido]morphinan.tartrate] | 9.38 |  | 0.164 |  |  | 3.2 |  |  |
| CN(C(=O)/C=C/c1ccccc1)[C@H]1CC[C@@]2(O)[C@H]3Cc4ccc(O)c5c4[C@@]2(CCN3CC2CC2)[C@H]1O5 [Compound 24, 17-cyclopropylmethyl-3,14β-dihydroxy-4,5α-epoxy-6α-(N-methylcinnamamido)morphinan.hydrochloride] |  |  | 4.90 | 16.5 | 0.426 | 0.69 | 6.3 | selective agonists for δ receptors |
| CN(C(=O)C#Cc1ccc(C(F)(F)F)cc1)[C@H]1CC[C@@]2(O)[C@H]3Cc4ccc(O)c5c4[C@@]2(CCN3CC2CC2)[C@H]1O5 [Compound 126, 17-Cyclopropylmethyl-3,14β-dihydroxy-4,5α-epoxy-6α-[N-methyl-3-(4-trifluoromethylphenyl)propiolamido] morphinan.0.5 tartrate] |  |  | 1.20 | 40.2 | 0.0065 |  |  | selective agonists for δ receptors |
| CN(C(=O)OCc1ccc([N+](=O)[O-])cc1)[C@H]1CC[C@@]2(O)[C@H]3Cc4ccc(O)c5c4[C@@]2(CCN3CC2CC2)[C@H]1O5 [Compound 43, 17-cyclopropylmethyl-3,14β-dihydroxy-4,5α-epoxy-6α-(N-methyl-4-nitrobenzyloxycarbamido)morphinan.hydrochloride] |  | selective agonists for κ receptors | 5.31 | 409 | 22.5 | 0.54 | 4.4 |  |
